# Laboratory results taken from publication PMC10215302 (Antibiotics, 2023).
# Read-outs that look alike come from different tables or passages of the source.
# Key:
# S. aureus SA0077 = details: for MIC values: Table S1: SA0077 Abf (passages on antibiotic-free media)
# S. aureus SA0085 = details: for MIC values: Table S1: SA0085 Abf (passages on antibiotic-free media)
# S. aureus RN4220 = details: for change of MICs on deletion of SACOL1927 (yfhP): S. aureus mutant strain RN4220, allele replacement; for MIC: Table S4: RN4220
# [1] = system: S. aureus derivative strains
# [2] = system: S. aureus (VISA/hVISA isolates; MprF P314L strains); details: MprF AAS P314L, cited from earlier work
# [3] = system: S. aureus derivative strains; assay type: cell-based, Staphylococcus aureus; details: AUC of tested strain / AUC of S. aureus Mu50
# [4] = SA0077, selecting agent DAP, passage 5
# [5] = SA0077, selecting agent DAP, passage 20
# [6] = SA0077, selecting agent DAP, passage 40
# [7] = SA0077, selecting agent VAN, passage 0
# [8] = SA0077, selecting agent VAN, passage 5
# [9] = SA0077, selecting agent VAN, passage 20
# [10] = SA0077, selecting agent VAN, passage 40
# [11] = Table S4: SA0077, strain before selection
# [12] = SA0085, selecting agent DAP, passage 5
# [13] = SA0085, selecting agent DAP, passage 20
# [14] = SA0085, selecting agent DAP, passage 40
# [15] = SA0085, selecting agent VAN, passage 0
# [16] = SA0085, selecting agent VAN, passage 5
# [17] = SA0085, selecting agent VAN, passage 20
# [18] = SA0085, selecting agent VAN, passage 40
# [19] = Table S4: SA0085, strain before selection
# [20] = SA0422, selecting agent DAP, passage 5
# [21] = SA0422, selecting agent DAP, passage 20
# [22] = SA0422, selecting agent DAP, passage 40
# [23] = SA0422, selecting agent VAN, passage 0
# [24] = SA0422, selecting agent VAN, passage 5
# [25] = SA0422, selecting agent VAN, passage 20
# [26] = SA0422, selecting agent VAN, passage 40
# [27] = Table S4: SA0422, strain before selection
# [28] = SA0736, selecting agent DAP, passage 5
# [29] = SA0736, selecting agent DAP, passage 20
# [30] = SA0736, selecting agent DAP, passage 40Y (yellow colonies)
# [31] = SA0736, selecting agent VAN, passage 0
# [32] = SA0736, selecting agent VAN, passage 20
# [33] = SA0736, selecting agent VAN, passage 40
# [34] = Table S1: SA0736 DAP-W (40 passages on daptomycin, white colonies)
# [35] = Table S1: SA0736 DAP-Y (40 passages on daptomycin, yellow colonies)
# [36] = Table S4: SA0736, strain before selection
# [37] = ATCC 29213, selecting agent DAP, passage 5
# [38] = ATCC 29213, selecting agent DAP, passage 20
# [39] = ATCC 29213, selecting agent DAP, passage 40
# [40] = ATCC 29213, selecting agent VAN, passage 0
# [41] = ATCC 29213, selecting agent VAN, passage 5
# [42] = ATCC 29213, selecting agent VAN, passage 20
# [43] = ATCC 29213, selecting agent VAN, passage 40
# [44] = Table S4: ATCC 29213, strain before selection
# [45] = Table S1: RN4220 ∆ (strain with deletion in SACOL1927)
compound,measurement,setting,value
"CCCCCCCCCC(=O)N[C@@H](Cc1c[nH]c2ccccc12)C(=O)N[C@H](CC(N)=O)C(=O)N[C@@H](CC(=O)O)C(=O)N[C@@H]1C(=O)NCC(=O)N[C@@H](CCCN)C(=O)N[C@@H](CC(=O)O)C(=O)N[C@H](C)C(=O)N[C@@H](CC(=O)O)C(=O)NCC(=O)N[C@H](CO)C(=O)N[C@@H]([C@H](C)CC(=O)O)C(=O)N[C@@H](CC(=O)c2ccccc2N)C(=O)O[C@@H]1C [DAP, daptomycin]",MIC,S. aureus SA0077; [4],0.5 µg/mL
same,MIC,S. aureus SA0077; [5],8 µg/mL
same,MIC,S. aureus SA0077; [6],32 µg/mL
same,MIC,S. aureus SA0077; [7],0.25 µg/mL
same,MIC,S. aureus SA0077; [8],2 µg/mL
same,MIC,S. aureus SA0077; [9],2 µg/mL
same,MIC,S. aureus SA0077; [10],2 µg/mL
same,MIC values,S. aureus SA0077,0.25 µg/mL
same,MIC,S. aureus SA0077; [11],0.25 µg/mL
same,MIC,S. aureus SA0085; [12],0.5 µg/mL
same,MIC,S. aureus SA0085; [13],32 µg/mL
same,MIC,S. aureus SA0085; [14],>64 µg/mL
same,MIC,S. aureus SA0085; [15],0.5 µg/mL
same,MIC,S. aureus SA0085; [16],1 µg/mL
same,MIC,S. aureus SA0085; [17],2 µg/mL
same,MIC,S. aureus SA0085; [18],2 µg/mL
same,MIC values,S. aureus SA0085,0.5 µg/mL
same,MIC,S. aureus SA0085; [19],0.5 µg/mL
same,MIC,S. aureus SA0422; [20],8 µg/mL
same,MIC,S. aureus SA0422; [21],16 µg/mL
same,MIC,S. aureus SA0422; [22],>64 µg/mL
same,MIC,S. aureus SA0422; [23],0.25 µg/mL
same,MIC,S. aureus SA0422; [24],1 µg/mL
same,MIC,S. aureus SA0422; [25],1 µg/mL
same,MIC,S. aureus SA0422; [26],2 µg/mL
same,MIC,S. aureus SA0422; [27],0.25 µg/mL
same,MIC,S. aureus SA0736; [28],1 µg/mL
same,MIC,S. aureus SA0736; [29],32 µg/mL
same,MIC,S. aureus SA0736; [30],>64 µg/mL
same,MIC,S. aureus SA0736; [31],0.25 µg/mL
same,MIC,"S. aureus SA0736; SA0736, selecting agent VAN, passage 5",0.5 µg/mL
same,MIC,S. aureus SA0736; [32],0.5 µg/mL
same,MIC,S. aureus SA0736; [33],2 µg/mL
same,MIC values,S. aureus SA0736; [34],> 64 µg/mL
same,MIC values,S. aureus SA0736; [35],> 64 µg/mL
same,MIC,S. aureus SA0736; [36],0.25 µg/mL
same,MIC,S. aureus ATCC 29213; [37],0.5 µg/mL
same,MIC,S. aureus ATCC 29213; [38],32 µg/mL
same,MIC,S. aureus ATCC 29213; [39],64 µg/mL
same,MIC,S. aureus ATCC 29213; [40],0.125 µg/mL
same,MIC,S. aureus ATCC 29213; [41],0.25 µg/mL
same,MIC,S. aureus ATCC 29213; [42],2 µg/mL
same,MIC,S. aureus ATCC 29213; [43],2 µg/mL
same,MIC,S. aureus ATCC 29213; [44],0.125 µg/mL
same,change of MICs on deletion of SACOL1927 (yfhP),S. aureus RN4220,did not change
same,MIC values,S. aureus RN4220; Table S1: RN4220 WT,0.25 µg/mL
same,MIC values,S. aureus RN4220; [45],0.25 µg/mL
same,MIC,S. aureus RN4220,0.25 µg/mL
same,MIC range by the 20th passage,"[1]; all strains, 20th passage of daptomycin selection",8 to 32 µg/mL
same,MIC correlated with mprF mutations,"[1]; daptomycin-selected derivatives, after the 20th passage",up to 32 mg/L
same,MICs in derivatives of all strains after selection with vancomycin,"[1]; selection with vancomycin, derivatives of all strains",2 µg/mL
same,MIC,[2]; moderate increase,2 µg/mL
same,effect on MIC,[2],no effect
vancomycin,PAP AUC ratio,[3]; after 40 passages in vancomycin,1.0–1.2
same,PAP AUC ratio,[3]; after daptomycin selection,0.4–1.0
same,MIC,S. aureus SA0077; [4],2 µg/mL
same,MIC,S. aureus SA0077; [5],4 µg/mL
same,MIC,S. aureus SA0077; [6],4 µg/mL
same,MIC,S. aureus SA0077; [7],1 µg/mL
same,MIC,S. aureus SA0077; [8],4 µg/mL
same,MIC,S. aureus SA0077; [9],8 µg/mL
same,MIC,S. aureus SA0077; [10],8 µg/mL
same,MIC values,S. aureus SA0077,1 µg/mL
same,MIC,S. aureus SA0077; [11],1 µg/mL
same,MIC,S. aureus SA0085; [12],1 µg/mL
same,MIC,S. aureus SA0085; [13],2 µg/mL
same,MIC,S. aureus SA0085; [14],4 µg/mL
same,MIC,S. aureus SA0085; [15],1 µg/mL
same,MIC,S. aureus SA0085; [16],4 µg/mL
same,MIC,S. aureus SA0085; [17],4 µg/mL
same,MIC,S. aureus SA0085; [18],8 µg/mL
same,MIC values,S. aureus SA0085,1 µg/mL
same,MIC,S. aureus SA0085; [19],1 µg/mL
same,MIC,S. aureus SA0422; [20],1 µg/mL
same,MIC,S. aureus SA0422; [21],2 µg/mL
same,MIC,S. aureus SA0422; [22],2 µg/mL
same,MIC,S. aureus SA0422; [23],1 µg/mL
same,MIC,S. aureus SA0422; [24],2 µg/mL
same,MIC,S. aureus SA0422; [25],4 µg/mL
same,MIC,S. aureus SA0422; [26],4 µg/mL
same,MIC,S. aureus SA0422; [27],1 µg/mL
same,MIC,S. aureus SA0736; [28],0.5 µg/mL
same,MIC,S. aureus SA0736; [29],4 µg/mL
same,MIC,"S. aureus SA0736; SA0736, selecting agent DAP, passage 40W (white colonies)",4 µg/mL
same,MIC,S. aureus SA0736; [30],4 µg/mL
same,MIC,S. aureus SA0736; [31],0.5 µg/mL
same,MIC,S. aureus SA0736; [32],8 µg/mL
same,MIC,S. aureus SA0736; [33],8 µg/mL
same,MIC values,S. aureus SA0736; [34],4 µg/mL
same,MIC values,S. aureus SA0736; [35],4 µg/mL
same,MIC,S. aureus SA0736; [36],0.5 µg/mL
same,MIC,S. aureus ATCC 29213; [37],1 µg/mL
same,MIC,S. aureus ATCC 29213; [38],2 µg/mL
same,MIC,S. aureus ATCC 29213; [39],4 µg/mL
same,MIC,S. aureus ATCC 29213; [40],0.25 µg/mL
same,MIC,S. aureus ATCC 29213; [41],0.25 µg/mL
same,MIC,S. aureus ATCC 29213; [42],2 µg/mL
same,MIC,S. aureus ATCC 29213; [43],8 µg/mL
same,MIC,S. aureus ATCC 29213; [44],0.25 µg/mL
same,change of MICs on deletion of SACOL1927 (yfhP),S. aureus RN4220,did not change
same,MIC values,S. aureus RN4220; Table S1: RN4220 WT,0.5 µg/mL
same,MIC values,S. aureus RN4220; [45],0.5 µg/mL
same,MIC,S. aureus RN4220,0.5 µg/mL
same,MICs of derivative strains at the end of selection with vancomycin,"[1]; derivative strains, end of vancomycin selection",4 to 8 µg/mL
same,change of MICs after 10 passages in antibiotic-free media,"[1]; vancomycin-selected derivatives, stability test",decreased by one dilution
